Laboratory results as given in patent publication US20210353621A1 (priority 2020, published 2021).
Where two headings read alike, the source gives them in different places.

Assays:
[1] = test system: enzalutamide resistant VCaP xenograft; experiment: Enzalutamide-resistant VCaP xenograft model; format: in vivo
[2] = Phase I dose escalation safety in mCRPC patients
Excerpt: (§1) A traditional 3+3 dose escalation design was implemented. […] Dose increases were dependent upon toxicities.

OATP1B3 = OATP1B3 (Homo sapiens, UniProt Q9NPD5); experiment: In vitro transporter inhibition, OATP1B3
Chain of OATP1B3 (Q9NPD5 whole entry): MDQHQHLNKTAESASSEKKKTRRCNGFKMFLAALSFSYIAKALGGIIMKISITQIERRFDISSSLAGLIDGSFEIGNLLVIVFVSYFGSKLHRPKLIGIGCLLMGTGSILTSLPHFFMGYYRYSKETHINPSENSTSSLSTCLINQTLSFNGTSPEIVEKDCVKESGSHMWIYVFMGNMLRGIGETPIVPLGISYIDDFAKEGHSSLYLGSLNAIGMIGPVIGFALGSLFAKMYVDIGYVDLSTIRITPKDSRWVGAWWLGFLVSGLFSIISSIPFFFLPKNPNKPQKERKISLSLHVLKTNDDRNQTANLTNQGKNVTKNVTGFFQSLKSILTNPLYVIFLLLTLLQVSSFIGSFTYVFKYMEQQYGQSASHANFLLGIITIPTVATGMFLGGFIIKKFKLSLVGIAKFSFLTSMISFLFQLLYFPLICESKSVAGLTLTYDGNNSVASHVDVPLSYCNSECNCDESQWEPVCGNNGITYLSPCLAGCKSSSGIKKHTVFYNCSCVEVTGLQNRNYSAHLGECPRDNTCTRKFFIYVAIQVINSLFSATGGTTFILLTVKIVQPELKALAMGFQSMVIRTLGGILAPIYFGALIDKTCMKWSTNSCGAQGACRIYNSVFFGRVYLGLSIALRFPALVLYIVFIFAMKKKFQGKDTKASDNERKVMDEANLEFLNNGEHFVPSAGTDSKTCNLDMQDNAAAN

[3] = Phase I clinical trial pharmacokinetics; details: male, human, in vivo, po, once daily
Excerpt: as §1

in vivo = details: dog, po
[4] = Preclinical pharmacokinetics, oral once daily (Table 1); details: total drug concentrations
BCRP = target: T1, BCRP (Homo sapiens, UniProt Q9UNQ0); experiment: In vitro transporter inhibition, BCRP
T1 sequence (Q9UNQ0 1-655): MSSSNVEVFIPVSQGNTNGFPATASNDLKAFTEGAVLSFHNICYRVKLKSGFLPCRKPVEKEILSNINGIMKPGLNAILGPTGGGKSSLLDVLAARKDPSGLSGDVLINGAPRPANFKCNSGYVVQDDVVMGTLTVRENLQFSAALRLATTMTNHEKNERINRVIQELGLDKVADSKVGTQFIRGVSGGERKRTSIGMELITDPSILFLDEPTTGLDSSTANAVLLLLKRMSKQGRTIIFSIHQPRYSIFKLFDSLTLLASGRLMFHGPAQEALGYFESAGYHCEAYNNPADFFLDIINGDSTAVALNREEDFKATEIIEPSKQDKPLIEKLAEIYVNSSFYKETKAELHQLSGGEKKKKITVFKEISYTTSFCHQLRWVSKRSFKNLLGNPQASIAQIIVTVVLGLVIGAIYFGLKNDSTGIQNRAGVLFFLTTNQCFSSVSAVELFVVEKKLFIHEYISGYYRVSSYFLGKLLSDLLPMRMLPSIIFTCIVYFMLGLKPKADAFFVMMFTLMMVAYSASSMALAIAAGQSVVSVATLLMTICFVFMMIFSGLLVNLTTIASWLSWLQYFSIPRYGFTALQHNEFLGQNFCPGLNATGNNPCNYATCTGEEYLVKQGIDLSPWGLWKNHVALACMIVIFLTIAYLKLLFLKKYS

OATP1B1 = OATP1B1 (Homo sapiens, UniProt Q9Y6L6); experiment: In vitro transporter inhibition, OATP1B1
Chain of OATP1B1 (Q9Y6L6 whole entry): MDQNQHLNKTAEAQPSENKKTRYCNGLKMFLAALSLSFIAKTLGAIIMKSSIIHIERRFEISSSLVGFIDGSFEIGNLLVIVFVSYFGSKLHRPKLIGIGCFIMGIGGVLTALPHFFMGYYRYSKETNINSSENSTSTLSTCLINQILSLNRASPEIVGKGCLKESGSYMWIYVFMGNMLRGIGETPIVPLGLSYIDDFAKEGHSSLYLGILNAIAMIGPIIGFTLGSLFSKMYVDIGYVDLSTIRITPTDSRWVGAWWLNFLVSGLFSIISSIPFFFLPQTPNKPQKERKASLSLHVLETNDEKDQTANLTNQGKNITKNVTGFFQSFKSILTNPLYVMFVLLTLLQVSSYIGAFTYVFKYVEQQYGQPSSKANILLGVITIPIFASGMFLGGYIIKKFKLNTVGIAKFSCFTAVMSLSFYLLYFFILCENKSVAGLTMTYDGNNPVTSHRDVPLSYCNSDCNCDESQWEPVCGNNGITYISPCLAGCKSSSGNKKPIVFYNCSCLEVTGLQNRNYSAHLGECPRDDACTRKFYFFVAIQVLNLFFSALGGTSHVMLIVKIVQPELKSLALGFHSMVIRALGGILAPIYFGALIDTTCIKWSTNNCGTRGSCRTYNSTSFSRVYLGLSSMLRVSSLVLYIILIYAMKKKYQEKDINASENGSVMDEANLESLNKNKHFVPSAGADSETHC

[5] = 28-day GLP toxicology study in rats
[6] = Exploratory non-GLP assay of rosuvastatin in retained patient plasma samples; format: in vivo, human; details: 2 patients taking rosuvastatin concurrently with Compound (I-g)
Excerpt: An exploratory, non-GLP method was developed to analyze for rosuvastatin and its major metabolite N-desmethyl rosuvastatin in retained pharmacokinetic plasma samples from the 2 patients.

[7] = 280 mg QD patient with rosuvastatin 20 mg QD, level before decrease
[8] = same patient, within 14 days after Compound (I-g) and rosuvastatin were discontinued
[9] = 3 and 10 μM, preliminary study, solubility limitation

SMILES: N#Cc1ccc(O[C@H]2CC[C@H](NC(=O)c3ccc(N4CCC(CN5CCN(c6cc7c(cc6F)C(=O)N(C6CCC(=O)NC6=O)C7=O)CC5)CC4)nn3)CC2)cc1Cl (stereo partly shown) [Compound (I-g)]
- tumor growth inhibition ([1]; 3 mg/kg oral once daily, compared to a control group): 70%
- AR in enzalutamide-resistant VCaP tumors (Western blot) ([1]; 10 mg/kg and 3 mg/kg oral, once daily, FIG. 6): reduction of AR
- lowest efficacious dose ([1]; oral, once daily, enzalutamide-resistant VCaP model): 3 mg/kg
- histopathology correlated with AST/ALT elevations (dogs): No correlated histopathology changes were observed
- gastrointestinal alterations (dogs, 3, 10 or 30 mg/kg oral once daily): observed at all dose levels (including vehicle alone)
- AST and ALT (dogs, 10 or 30 mg/kg/day, study days 14 and 29): reversible elevations of AST and ALT
- renal impairment (dogs, 28-day GLP study): No evidence of renal impairment was observed
- prostate weights (male dogs): decreased prostate weights
- adverse events ([2]; 35 mg/day cohort): no adverse events at grades 2, 3 or 4 were observed
- dose limiting toxicity ([2]; 35 mg/day cohort): no dose limiting toxicity was observed
- AST/ALT elevation on second re-challenge ([2]; 70 mg QD following discontinuation of rosuvastatin): no other AST/ALT elevation has been observed for 90 days
- AST/ALT elevation on re-challenge ([2]; 70 mg QD while continuing rosuvastatin): second instance of Grade 3 AST/ALT elevation
- adverse events ([2]; 70 mg/day cohort): no adverse events at grades 2, 3 or 4 have been observed, with the exception of grade 3 anemia that was unrelated to the administration of compound (I-g)
- dose limiting toxicity ([2]; 70 mg/day cohort): no dose limiting toxicity has been observed
- adverse events ([2]; 140 mg/day cohort): no adverse events at grades 2, 3 or 4 have been observed
- dose limiting toxicity ([2]; 140 mg/day cohort): no dose limiting toxicity has been observed
- dose limiting toxicity ([2]; 280 mg QD cohort (3 patients), patient taking rosuvastatin 20 mg QD): one patient experienced dose limiting toxicity (DLT) of Grade 4 AST/ALT elevation followed by Grade 4 acute renal failure
- ALT level [2, 7]: 4116 U/L
- AST level [2, 7]: 4901 U/L
- overall tolerability ([2]; 18 patients, 35 mg to 280 mg QD): well tolerated
- time to resolution of Grade 3 AST/ALT elevation to Grade 1 ([2]; after dose interruption, 140 mg QD patient with rosuvastatin 40 mg QD): ≤ 5 days
- ALT level [2, 8]: 83 U/L
- AST level [2, 8]: 280 U/L
- IC50 (OATP1B3): > 10 µM
- inhibition of OATP1B3 (OATP1B3; [9]): no inhibition
- AUC(0-t) ([3]; 35 mg, Mean Day 1 AUC0-24, 35 mg oral): 160 ng·h/mL
- Cmax ([3]; 35 mg, Mean Day 1 Cmax, 35 mg oral): 11.1 ng/mL
- AUC(0-t) ([3]; 35 mg, Mean Day 15 AUC0-24, 35 mg oral, imputed 24 hours values): 1700 ng·h/mL
- Cmax ([3]; 35 mg, Mean Day 15 Cmax, 35 mg oral): 83 ng/mL
- AUC(0-t) ([3]; 70 mg, Mean Day 1 AUC0-24, 70 mg oral): 300 ng·h/mL
- Cmax ([3]; 70 mg, Mean Day 1 Cmax, 70 mg oral): 19.6 ng/mL
- AUC(0-t) ([3]; 70 mg, Mean Day 15 AUC0-24, 70 mg oral, imputed 24 hours values): 2540 ng·h/mL
- Cmax ([3]; 70 mg, Mean Day 15 Cmax, 70 mg oral): 141 ng/mL
- AUC(0-t) ([3]; 140 mg, Mean Day 1 AUC0-24, 140 mg oral): 865 ng·h/mL
- Cmax ([3]; 140 mg, Mean Day 1 Cmax, 140 mg oral): 54 ng/mL
- AUC(0-t) ([3]; 140 mg, Mean Day 15 AUC0-24, 140 mg oral, imputed 24 hours values): 5020 ng·h/mL
- Cmax ([3]; 140 mg, Mean Day 15 Cmax, 140 mg oral): 353 ng/mL
- MTD at 28 days (in vivo): < 30 mg/kg
- Mean AUC0-24 ([4]; 1 mg/kg oral): 3628 ng·h/mL
- Mean Cmax ([4]; 1 mg/kg oral): 224 ng/mL
- Mean AUC0-24 ([4]; 3 mg/kg oral): 8106 ng·h/mL
- Mean Cmax ([4]; 3 mg/kg oral): 507 ng/mL
- IC50 (BCRP): > 10 µM
- inhibition of BCRP (BCRP; [9]): no inhibition
- IC50 (OATP1B1): > 10 µM
- inhibition of OATP1B1 (OATP1B1; [9]): no inhibition
- body weight and food consumption ([5]; 80 mg/kg female rat cohort): lost body weight and consumed less food
- reversibility of findings in male high-dose rats ([5]; male high-dose rats, 14-day recovery): fully reversible (liver hypertrophy, femur physis thickening)
- prostate weights ([5]; male rats): decreased prostate weights
- renal impairment ([5]; rats, 28-day GLP study): No evidence of renal impairment was observed
- tolerability ([5]; rats, oral once daily, 28 days, males 20, 60, 120 mg/kg, females 20, 40, 120 mg/kg): well tolerated at all doses, with the exception of the 80 mg/kg female cohort

SMILES: CC(C)c1nc(N(C)S(C)(=O)=O)nc(-c2ccc(F)cc2)c1/C=C/[C@@H](O)C[C@@H](O)CC(=O)O [Rosuvastatin, rosuvastatin]
- rosuvastatin plasma concentrations [6]: increased concurrently with the increase in AST/ALT levels in both patients
